Results on 14 molecules are retold here after US20060135480A1, “Derivatives of succinic and glutaric acids and analogs thereof useful as inhibitors of phex” (Enobia Pharma, priority 2002, published 2006).

The target in the test is T1, sPHEX (Homo sapiens, UniProt P78562).
T1 construct: The soluble form of the metallopeptidase PHEX (sPHEX) was purified to homogeneity; made in house
T1 sequence (P78562 53-749 limits assumed): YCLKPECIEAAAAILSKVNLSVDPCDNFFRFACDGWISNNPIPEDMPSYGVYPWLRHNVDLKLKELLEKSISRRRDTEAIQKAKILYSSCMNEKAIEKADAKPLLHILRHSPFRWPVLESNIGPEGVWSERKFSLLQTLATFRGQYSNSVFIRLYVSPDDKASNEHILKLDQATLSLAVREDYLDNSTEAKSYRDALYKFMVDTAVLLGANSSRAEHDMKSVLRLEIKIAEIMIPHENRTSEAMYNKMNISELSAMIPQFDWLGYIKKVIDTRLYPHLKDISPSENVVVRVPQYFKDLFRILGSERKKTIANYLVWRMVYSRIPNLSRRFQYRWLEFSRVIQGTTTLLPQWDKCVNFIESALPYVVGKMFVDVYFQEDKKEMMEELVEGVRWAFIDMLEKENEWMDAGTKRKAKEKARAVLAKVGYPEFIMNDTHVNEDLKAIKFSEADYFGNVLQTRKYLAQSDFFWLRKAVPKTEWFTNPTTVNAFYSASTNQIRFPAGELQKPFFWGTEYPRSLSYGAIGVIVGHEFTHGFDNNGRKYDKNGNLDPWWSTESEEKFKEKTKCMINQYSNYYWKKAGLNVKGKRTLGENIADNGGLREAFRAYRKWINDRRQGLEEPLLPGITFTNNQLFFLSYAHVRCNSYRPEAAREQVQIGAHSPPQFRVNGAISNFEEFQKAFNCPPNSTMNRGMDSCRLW
The experiment in a line: sPHEX inhibitor IC50 determination using a fluorogenic substrate (Abz-GFSDYK-Dnp, S3). In kind it is biochemical. The following applies: fluorogenic substrate 20 μM, 100 ng sPHEX, pH 6.5. As to the method: The soluble form of the metallopeptidase PHEX (sPHEX) was purified to homogeneity according to the methods of Boileau and Crine (WO 00/50580). sPHEX quantity was measured with the Bradford assay (BioRad) using BSA as a standard.
sPHEX activity was determined using a fluorogenic substrate in which an increase of fluorescence was proportional to substrate conversion to products.
S3 was synthesized at Dr. Gilles Lajoie's laboratories (University of Western Ontario, Canada) by standard solid phase peptide synthesis. The fluorescent reaction product was excited at 320 nm to fluoresce at 420 nm. Fluorescence was recorded at 420 nm every five minutes over a one-hour period on a fluorescence plate reader (Perkin-Elmer, HTS-7000) to calculate the initial rate of the reaction. Typically, the reaction was carried out in 200 μl of buffer M (50 mM Mes(NaOH) pH 6.5, 150 mM NaCl) containing 100 ng of purified sPHEX and 20 μM of fluorigenic substrate to initiate the reaction. Enzymatic activity was determined by subtracting either the initial rate of substrate in buffer (solvolysis), or the typical reaction rate in which 5 mM EDTA was added prior to initiating the reaction.
sPHEX inhibitor IC50 determinations were done using the tested inhibitor at various concentrations coming from a serial dilution (usually ranging from 10^−3 M to 10^−12 M) in the reaction described above. IC50 values were calculated using the iterative four parameters non-linear regression formula from the GraphPad™ software (Prism).
Molecule `O=C(O)C[C@H](NC(=O)[C@@H](S)Cc1ccccc1)C(=O)N[C@@H](Cc1c[nH]c2ccccc12)C(=O)N[C@@H](CO)C(=O)O` [Example 116, N-[1-(1-Carboxy-2-hydroxy-ethylcarbamoyl)-2-(1H-indol-3-yl)-ethyl]-3-(2-mercapto-3-phenyl-propionylamino)-succinamic acid] yielded a half-inhibitory concentration (IC50) of 4 nM.
As for `COC(=O)[C@H](Cc1c[nH]c2ccccc12)NC(=O)[C@H](CC(=O)O)NC(=O)CS` [Example 117, N-[2-(1H-indol-3-yl)-methoxycarbonyl-etjyl]-3-(2-mercapto-acetylamino)-succinamic acid], the half-maximal inhibitory concentration (IC50) is 2600 nM.
To `O=C(O)C[C@H](NC(=O)[C@@H](S)Cc1ccccc1)C(=O)NCCc1c[nH]c2ccccc12` [Example 118, N-[2-(1H-indol-3-yl)l-ethyl]-3-(2-mercapto-3-phenyl-propionylamino)-succinamic acid] belongs 140 nM; to `N#Cc1ccc(-c2ccc(CCNC(=O)C(CC(=O)O)CC(=O)NO)cc2)cc1` (centres unmarked) [Example 130, 3-[2-(4′-Cyano-biphenyl-4-yl)-ethylcarbamoyl]-4-hydroxycarbamoyl-butyric acid], 190 nM.
Turning to `O=C(O)CC(CC(=O)NO)C(=O)NCCc1ccc(-c2ccccn2)cc1` (centres unmarked) [Example 132, 4-Hydroxycarbamoyl-3-[2-(4-pyridin-2-yl-phenyl)-ethylcarbamoyl]-butyric acid], the IC50 worked out at 240 nM.
With `O=C(O)CC(CC(=O)NO)C(=O)NCCCCc1ccccc1` (centres unmarked) [Example 134, 4-Hydroxycarbamoyl-3-(4-phenyl-butylcarbamoyl)-butyric acid], the IC50 stood at 560 nM.
To `O=C(O)CC(CC(=O)NO)C(=O)NCCOc1ccccc1` (centres unmarked) [Example 138, 4-Hydroxycarbamoyl-3-(2-phenoxy-ethylcarbamoyl)-butyric acid] belongs 860 nM; to `O=C(O)CC(CC(=O)NO)C(=O)NCCc1ccc(-c2ccc(O)cc2)cc1` (centres unmarked) [Example 140, 3-[2-(4′-Hydroxy-biphenyl-4-yl)-ethylcarbamoyl]4-hydroxycarbamoyl-butyric acid], 360 nM.
`O=C(O)CC(CC(=O)NO)C(=O)NCC(c1ccccc1)c1ccccc1` (centres unmarked) [Example 142, 3-(2,2-Diphenyl-ethylcarbamoyl)-4-hydroxycarbamoyl-butyric acid] had an IC50 of 54 nM.
For `O=C(O)CC(CC(=O)NO)C(=O)NCCCCCO` (centres unmarked) [Example 148, 4-Hydroxycarbamoyl-3-(5-hydroxy-pentylcarbamoyl)-butyric acid], half-maximal inhibition (IC50) required 1700 nM.
To `O=C(O)CC(CC(=O)NO)C(=O)NCc1ccc(-c2ccccc2)cc1` (centres unmarked) [Example 150, 3-[(Biphenyl-4-ylmethyl)-carbamoyl]-4-hydroxycarbamoyl-butyric acid] belongs 270 nM; to `O=C(O)CC(CCC(=O)NO)C(=O)NCCc1ccc(-c2ccccc2)cc1` (centres unmarked) [Example 152, 3-(2-Biphenyl-4-yl-ethylcarbamoyl)-5-hydroxycarbamoyl-pentanoic acid], 1300 nM; to `O=C(O)C[C@H](NC(CCc1ccccc1)P(=O)(O)O)C(=O)N[C@@H](Cc1c[nH]c2ccccc12)C(=O)O` (some centres unmarked) [Example 162, N-[1-carboxy-2-(1H-indol-3-yl)-ethyl]-3-(3-phenyl-1-phosphono-propylamino)-succinic acid], 9700 nM.
On to `O=C(O)CC(CC(=O)O)C(=O)NCCc1ccc2ccccc2c1` [Example 169, 3-(2-Naphthalen-2-yl-ethylcarbamoyl)-pentanedioic acid], for which half-maximal inhibition (IC50) required 19000 nM.

Broadly, the IC50 is the concentration that inhibits the measured activity by half. A high value points to weaker potency in that assay.
